Values of other authors, collected in patent publication US11219614B2, “Combination cancer therapy with pentaaza macrocyclic ring complex and ascorbate compound” (Galera Labs, LLC, priority 2016, dated 2022).

How the values were obtained:
[1] = tested on: experimental model of colitis; details: rats; cited from earlier work
[2] = tested on: radiation-induced oral mucositis; details: hamster, acute radiation-induced oral mucositis; cited from earlier work
[3] = tested on: lethal total body irradiation; details: adult mice; cited from earlier work
inflammation = details: rat model; cited from earlier work
[4] = tested on: collagen-induced arthritis; details: rat; cited from earlier work
[5] = pH 7, absence of catalytic metals; cited from earlier work

Compound | injury to the colon [1] | radiation damage [2] | radiation damage [3] | inflammation (inflammation) | joint disease [4] | stability of solution [5]
[Cl-].[Cl-].[Mn+2].c1cc2nc(c1)CN[C@@H]1CCCC[C@H]1NCCN[C@@H]1CCCC[C@H]1NC2 [GC4403] | very significantly reduce the injury to the colon | attenuate the radiation damage | attenuate the radiation damage | inhibit inflammation | prevent joint disease | 
O=C1O[C@H]([C@@H](O)CO)C(O)=C1O [ascorbic acid, (5R)-[(1S)-1,2-Dihydroxyethyl]-3,4-dihydroxyfuran-2(5H)-one] |  |  |  |  |  | stable at pH 7
